Measurements published in patent US9315484B2, “Mitochondrial aldehyde dehydrogenase-2 modulators and methods of use thereof” (The Board of Trustees of the Leland Stanford Junior …, priority 2007, dated 2016).
Numbering of substitutions follows the chain as printed. pIC50: −log10 of the molar value.

Assays:
"wild-type" ALDH2 enzyme = target: T1, "wild-type" ALDH2 enzyme (Homo sapiens, UniProt P05091); experiment: Screen and inhibition assay with wild-type ALDH2 enzyme; type: biochemical
T1 sequence (P05091 18-517): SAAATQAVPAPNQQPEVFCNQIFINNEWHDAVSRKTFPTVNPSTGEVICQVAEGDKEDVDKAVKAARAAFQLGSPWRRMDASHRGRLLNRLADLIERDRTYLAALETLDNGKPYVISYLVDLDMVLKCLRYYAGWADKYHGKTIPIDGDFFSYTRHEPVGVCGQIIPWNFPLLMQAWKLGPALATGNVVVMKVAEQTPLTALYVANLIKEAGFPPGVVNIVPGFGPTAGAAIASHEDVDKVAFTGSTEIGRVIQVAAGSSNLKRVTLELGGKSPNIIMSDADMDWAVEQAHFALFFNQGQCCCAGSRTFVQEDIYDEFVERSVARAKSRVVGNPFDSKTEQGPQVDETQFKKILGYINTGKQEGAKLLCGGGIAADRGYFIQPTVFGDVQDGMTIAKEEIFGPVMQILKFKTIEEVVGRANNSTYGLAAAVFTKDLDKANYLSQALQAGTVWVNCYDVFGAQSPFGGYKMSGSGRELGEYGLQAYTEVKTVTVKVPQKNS
Experimental: (§1) Compounds were screened using a method as depicted schematically in FIG. 2. Essentially, the reaction is carried out at 25° C. in 0.1 NaPPi buffer, pH 9.5, 2.4 mM NAD^+ and 10 mM acetaldehyde as the substrate. Enzymatic activity is measured by a reductive reaction of NAD^+ to NADH at 340 nm. Alternatively, the production of NADH can be coupled with another enzymatic reaction that consumes NADH and that provides for a detectable signal. An example of such an enzymatic reaction is a diaphorase-based reaction, which reduces resazurin to its […] fluorescent compound resorufin.
Compounds were screened, as described above, but using the “wild-type” ALDH2 enzyme. Of 63,000 compounds screened, six inhibitors were identified. Three of the compounds, referred to in FIGS. 8, 9, and 10 as #062923, #046072, and #032208, respectively, were assayed for their effect on ALDH2 enzymatic activity.

rat hearts = experiment: Ex vivo Langendorff model of myocardial infarction (no-flow ischemia and reperfusion); conditions: ex vivo rat heart
Experimental: Ex vivo Langendorff preparations of rat hearts were used as a model to assess the damage incurred by no-flow ischemia and reperfusion injury. This is an experimental model that mimics the clinical situation of myocardial infarction in patients. Rat hearts were excised and cannulated on a Langendorff apparatus via the aorta. Retrograde perfusion was carried out using the standard oxygenated Kreb-Hensleit buffer maintained at 37° C. All hearts were stabilized by an initial 5- to 10-minute perfusion period followed by delivery of different cardioprotective agents or AldDH2 inhibitors for 10-30 minutes, depending on the reagent. Reagents used in some of the representative experiments including ethanol (50 mM), EPKC isozyme-selective activator and inhibitor peptides (1 μM), cyanamide (5 mM) and nitroglycerin (2 μM). […]
The degree of ischemia/reperfusion damage was measured by two independent commonly accepted parameters. […] In another assay, creatine phosphate kinase activity was measured from reperfusate of each heart collected during reperfusion. […] Homogenates from each heart was also obtained from a separate section of the identical sample and analyzed for aldehyde dehydrogenase enzymatic activity. Enzymatic activity was determined by a standard spectrophotometric method described above using acetaldehyde as the substrate and NAD^+ as a cofactor.

ALDH2*2 mutant enzyme = target: T2, ALDH2*2 mutant enzyme (Homo sapiens, UniProt P05091, E504K); experiment: ALDH2 enzymatic assay, ALDH2*2 recombinant enzyme; type: biochemical; conditions: range of 10-200 μM
T2 sequence (P05091 18-517 E504K): T1 sequence (P05091 18-517) with E487K
Experimental: (§2) BDDB derivative compounds, XO43 and XO44 as depicted in FIG. 12, were synthesized and tested in ALDH2 enzymatic assays. […] Enzymatic activity was measured by a reductive reaction of NAD^+ to NADH at 340 nm, as described in US 2005/0171043; and WO 2005/057213. […] (FIG. 12: n=3 for both right and left panels.)

Male Wistar rats = experiment: In vivo LAD coronary artery ligation ischemia/reperfusion model; design: species or system rat; conditions: 8.5 mg/kg into the left ventricle five minutes before LAD ligation, p<0.01
Experimental: Male Wistar rats (250-300 g) were anesthetized by 3% isoflurane. The surgical procedures used for left anterior descending coronary artery (LAD) ligation are based on published protocols Animals were intubated, and ventilated with a Harvard rodent ventilator at a rate of 80 breaths per minute (5-15 mm Hg). Maintenance anesthesia was provided via 1% inhalational isoflurane, and body temperature was maintained at 37° C. using a rectal probe linked to a thermocoupled thermometer and an appropriate heating blanket. The heart was exposed by median sternotomy. Following a 20-minute period of stabilization, a ligature was placed around the LAD coronary artery, close to its origin from the aortic root. The ends of the ligature were passed through polyethylene tubing forming a small noose in which a syringe plunger was rested upon the myocardial surface. Coronary occlusion was achieved by pressing the tubing against the plunger while pulling on the ligature followed by clamping the tubing with a hemostat. Occlusion was determined by observation of immediate pallor of the left ventricular free wall. Reflow was achieved by release of the ligature. […]
At the end of reperfusion, hearts were excised and flushed with 0.9% saline. […] Serum was separated by centrifugation at 5000 g for 5 minutes on a tabletop centrifuge and creatine phosphate kinase (CPK) values were determined.

[1] = target: T3, E487K variant of human ALDH2 (Homo sapiens, UniProt P05091, E504K); experiment: Enzymatic activity of histidine-tagged E487K ALDH2 variant (NAD+ to NADH, acetaldehyde substrate); type: biochemical; conditions: over control (without activator compound) activity; n=3
T3 construct: made in house; host or cells: E. coli
T3 sequence (P05091 18-517 E504K): T1 sequence (P05091 18-517) with E487K
Experimental: as §1
For example, a 120 μl reaction mixture for ALDH2 enzymatic activity comprises the following components:
43 μl 150 mM sodium pyrophosphate (NaPPi) buffer, pH 9.0;
15 μl 80 mM acetaldehyde;
1 μl of resazurin (0.2 mg/ml in H2O);
1 μl of diaphorase (1 unit, e.g., from Clostridium kluyveri);
2 μl of variant ALDH2 (e.g., 2 μl of variant ALDH2 at (0.5-2 μg/μl); and
28 μl of a solution comprising an agent to be tested, which agent has been resuspended in an appropriate solvent (e.g., an aqueous solution, DMSO, and the like).
Fluorescent detection of the above-described reaction as described in Table 1:
A fusion protein that includes the E487K variant of human ALDH2 (see amino acid sequence depicted in FIG. 1B) and a poly-histidine tag was synthesized and used in screens for ALDH2 agonists. An expression construct that encodes the […] variant fused in-frame to a poly-histidine (His) tag was introduced into E. coli, and expression was induced by the addition of isopropyl-1-thio-3-D-galactoside (IPTG); and His-tagged E487K ALDH2 variant was produced. The His-tagged E487K ALDH2 variant was purified from E. coli extract using a metal ion affinity column to bind the His-tagged E487K ALDH2 variant. His-tagged E487K ALDH2 variant was eluted from the column and used in screening assays to identify ALDH2 agonists.

ALDH2*1 wild type enzyme = target: T4, ALDH2*1 wild type enzyme (Homo sapiens, UniProt P05091); experiment: ALDH2 enzymatic assay, ALDH2*1 recombinant enzyme; type: biochemical; conditions: for increase in activity of ALDH2*1 wild type enzyme: at the higher concentration (range 10-200 μM), n=3; for ALDH2 activation, dose dependence: range of 10-200 μM
T4 sequence (P05091 18-517): T1 sequence (P05091 18-517)
Experimental: as §2

Row | Compound | pIC50 ("wild-type" ALDH2 enzyme) | ALDH2 activation, dose dependence (ALDH2*2 mutant enzyme) | increase of enzymatic activity of the E487K ALDH2 variant over control [1] | increase in activity of ALDH2*1 wild type enzyme (ALDH2*1 wild type enzyme) | ALDH2 activation, dose dependence (ALDH2*1 wild type enzyme) | further results
1 | O=C(Nc1nc2c(Cl)c(Cl)ccc2s1)c1cccnc1 [#032208] | 5.79 |  |  |  |  | 
2 | CCc1ccc(C(=O)CCN(C)C)cc1 [#046072] | 5.94 |  |  |  |  | 
3 | COc1ccc(C(=O)CCN(C)C)cc1F [#062923] | 6.20 |  |  |  |  | 
4 | O=C(NCc1ccc2c(c1)OCO2)c1c(Cl)cccc1Cl [Compound 1, N-(1,3-benzodioxol-5-ylmethyl)-2,6-dichlorobenzamide] |  | dosage dependent effect | approximately 900% | about 180% | dosage dependent effect | infarct size (rat hearts; ischemia-reperfusion, control 57.7±5.4%, p<0.05, n=7): 41.6±4.1%; CPK release (rat hearts; reperfusate, control 5530±329, P<0.05, n=8): 4396 Units/Liter; decrease of CPK release (Male Wistar rats; rat blood): about 57%; decrease of the extent of myocardial infarction (Male Wistar rats; rat): about 60%
5 | O=C(NCc1ccc2c(c1)OCO2)c1c(F)cccc1F [Compound 2, N-(1,3-benzodioxol-5-ylmethyl)-2,6-difluorobenzamide] |  |  | approximately 300% |  |  | 
6 | O=C(NCc1ccc2c(c1)OCO2)c1ccccc1Br [Compound 3, N-(1,3-benzodioxol-5-ylmethyl)-2-bromobenzamide] |  |  | ~600% |  |  | 
7 | O=C(NCc1ccc2c(c1)OCO2)c1ccccc1I [Compound 4, N-(1,3-benzodioxol-5-ylmethyl)-2-iodobenzamide] |  |  | ~700% |  |  | 
8 | O=C(NCc1ccc2c(c1)OCO2)c1c(Cl)cncc1Cl [XO43] |  | dosage dependent effect |  | about 180% | dosage dependent effect | 
9 | Cc1cccc(C)c1C(=O)NCc1ccc2c(c1)OCO2 [XO44] |  | dosage dependent effect |  | about 180% | dosage dependent effect | 
